Measured values reported in patent US9763910B1, “Combination therapy for treating cancer” (Huanggang Normal University, priority 2016, dated 2017).
pIC50: −log10 of the molar value.

Legend:
[1] = format: in vivo, mouse
Method: BALB/c nude mice were divided into two groups, with 8 mice in each group. […] Then, liver, spleen, and kidney weights of the mice in each group were measured and blood was collected. Following at RT for 1 h, the blood was centrifuged at 3000 rpm for 10 min at 4° C. to collect serum before stored at −80° C. Clinical chemistry measurements, e.g., levels of AST, ALT, triglyceride (TG), and total cholesterol (TC), were measured by an automatic biochemical analyzer.

[2] = tested on: CL1-5 human lung cancer cells engrafted in BALB/c nude mice; assay: Tumor growth in CL1-5 cell-engrafted BALB/c nude mice; conditions: CL1-5 engrafted nude mice
Method: The study was carried out as follows: inoculating BALB/c mice with of the CL1-5 human lung cancer cells; dividing the mice into 4 groups 7 days after inoculation with 8 mice in each group and treating them once every two days for 14 days respectively with (i) 0.4 ml of 10% DMSO, (ii) 0.4 ml of 10% DMSO containing 25 μmol of docetaxel, (iii) 0.4 ml of 10% DMSO containing 15.5 μmol of 5-demethylnobiletin, and (iv) 0.4 ml of 10% DMSO containing 25 μmol of docetaxel and 15.5 μmol of 5-demethylnobiletin; growing mice without any treatment for another 14 days; measuring tumor sizes after animal sacrificing.
The experimental BALB/c nude mice were divided into 4 groups, with 8 in each group. Each mouse was inoculated with 0.1 ml of the CL1-5 human lung cancer cells at a density of 10^6 cells/ml. 7 days after of the inoculation, the 4 groups of mice were infused respectively with (i) 27 μl of 10% DMSO; (ii) 25 μmol of docetaxel in a 10% DMSO solution (iii) 15.5 μmol of 5-demethylnobiletin in a 10% DMSO solution; and (iv) 25 μmol of docetaxel and 15.5 μmol of 5-demethylnobiletin in a 10% DMSO solution at a frequency of once every 2 days for 14 days. […]
[1−(fa)2], (fa)1 and (fa)2 are inhibition rates of drug1 and drug2, respectively, and (fa)1,2 is the calculated inhibition rate of combining drug1 and drug2, which is also a theoretical additive effect. […]

CL1-5 lung cancer cells = assay: Growth inhibition of CL1-5 lung cancer cells (cell viability by absorbance); conditions: Homo sapiens, CL1-5, read-out: IC50 rate of docetaxel for the CL1-5 cells
Method: The CL1-5 cells were cultured in RPMI 1640 medium containing 100 U/ml penicillin, 100 μg/ml streptomycin, and 10% fetal bovine serum at a temperature of 37° C. and with carbon dioxide at a concentration of 5%. The cultured cells were divided into 8 treatment groups. 4 groups were treated only with docetaxel at different concentrations: 3.125, 6.25, 12.5, and 25.0 nmol of docetaxel per liter of the medium in 100 μl of 10% DMSO solution.

[3] = 15.5 μmol once every 2 days for 14 days, sacrificed after another 14 days
[4] = serum, 15.5 μmol once every 2 days for 14 days

Row | Kidney weight [1, 3] [g] | Liver weight [1, 3] [g] | Spleen weight [1, 3] [g] | difference between control group and treatment group in organ weights and clinical chemistry ([1]; Table 1 parameters) | GOT [1, 4] [Unit/L] | GPT [1, 4] [Unit/L] | TC [1, 4] [mg/dL] | TG [1, 4] [mg/dL] | Structure (SMILES) | experimental inhibition rate (fa) of tumor growth [2] [%] | pIC50 (CL1-5 lung cancer cells)
1 | 0.90 ± 0.06 | 3.93 ± 0.28 | 0.21 ± 0.04 | no significant difference | 91.2 ± 9.8 | 22.8 ± 5.2 | 77.1 ± 4.9 | 109.5 ± 36.9 | COc1ccc(-c2cc(=O)c3c(O)c(OC)c(OC)c(OC)c3o2)cc1OC [5-Hydroxy-6,7,8,3′,4′-pentamethoxyflavone] | 38 | –
2 | – | – | – | – | – | – | – | – | CC(=O)O[C@@]12CO[C@@H]1C[C@H](O)[C@@]1(C)C(=O)[C@H](O)C3=C(C)[C@@H](OC(=O)[C@H](O)[C@@H](NC(=O)OC(C)(C)C)c4ccccc4)C[C@@](O)([C@@H](OC(=O)c4ccccc4)[C@H]21)C3(C)C [docetaxel, 1,7β,10β-trihydroxy-9-oxo-5β,20-epoxytax-11-ene-2α,4,13α-triyl 4-acetate 2-benzoate 13-{(2R,3S)-3-[(tert-butoxycarbonyl)amino]-2-hydroxy-3-phenylpropanoate}, reference compound] | 47.6 | 7.55
